Measured values from patent US20260049076A1, “Tertiary Amine Substituted Bicyclic Compounds Useful as T Cell Activators” (BRISTOL-MYERS SQUIBB COMPANY, priority 2022, published 2026).

What was measured:
human DGKα = biological target: T1, human DGKα (Homo sapiens, UniProt P23743); assay: In vitro DGK inhibition assay, DGKα liposome (LIPGLO) assay; type: biochemical; conditions: read-out: Enzyme Inhibition DGKalpha IC50
T1 construct: TVMV protease cleavage site (C); Hexa-His (C); made in house; host or cells: Sf9 insect cells (baculovirus)
Summary of the method: (§1)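 Baculovirus/Sf9-expressed His-tagged human DGKα or DGKζ (5 nM) on extruded liposomes (2 mM PS, 0.25 mM DAG, 2.75 mM PC) in MOPS pH 7.5 with MgCl2, CaCl2 and 150 μM ATP, 1 h.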

human DGKζ = biological target: T2, human DGKζ (Homo sapiens, UniProt Q13574); assay: In vitro DGK inhibition assay, DGKζ liposome (LIPGLO) assay; type: biochemical; conditions: read-out: Enzyme Inhibition DGKzeta IC50
T2 construct: TVMV protease cleavage site (C); Hexa-His (C); made in house; host or cells: Sf9 insect cells (baculovirus)
Summary of the method: as §1

DGKzeta = DGKzeta (Homo sapiens, UniProt Q13574); assay: Translocation DGKzeta; type: cell-based
DGKalpha = DGKalpha (Homo sapiens, UniProt P23743); assay: Translocation DGKalpha; type: cell-based
DGKalpha, sequence (P23743 whole entry): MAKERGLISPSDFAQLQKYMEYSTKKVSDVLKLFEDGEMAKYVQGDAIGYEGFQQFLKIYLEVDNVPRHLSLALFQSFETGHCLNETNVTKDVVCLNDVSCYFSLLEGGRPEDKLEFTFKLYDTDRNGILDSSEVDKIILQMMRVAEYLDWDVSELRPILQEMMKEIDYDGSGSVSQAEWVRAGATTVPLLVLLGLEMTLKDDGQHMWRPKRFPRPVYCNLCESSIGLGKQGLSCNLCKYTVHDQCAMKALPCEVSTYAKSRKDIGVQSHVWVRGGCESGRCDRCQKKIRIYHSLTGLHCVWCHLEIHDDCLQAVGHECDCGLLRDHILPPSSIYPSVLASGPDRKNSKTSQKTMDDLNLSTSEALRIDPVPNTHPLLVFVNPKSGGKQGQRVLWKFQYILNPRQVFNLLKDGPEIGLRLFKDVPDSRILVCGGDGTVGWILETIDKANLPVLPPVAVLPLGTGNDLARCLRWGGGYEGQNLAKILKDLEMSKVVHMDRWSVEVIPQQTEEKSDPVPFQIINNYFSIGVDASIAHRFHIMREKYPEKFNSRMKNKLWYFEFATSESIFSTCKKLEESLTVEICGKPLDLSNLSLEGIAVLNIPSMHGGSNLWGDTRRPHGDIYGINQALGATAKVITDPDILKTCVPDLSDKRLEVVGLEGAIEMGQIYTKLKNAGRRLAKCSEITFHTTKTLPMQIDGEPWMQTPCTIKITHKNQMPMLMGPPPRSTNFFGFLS

T1 sequence (P23743 with tags, fused parts or gaps): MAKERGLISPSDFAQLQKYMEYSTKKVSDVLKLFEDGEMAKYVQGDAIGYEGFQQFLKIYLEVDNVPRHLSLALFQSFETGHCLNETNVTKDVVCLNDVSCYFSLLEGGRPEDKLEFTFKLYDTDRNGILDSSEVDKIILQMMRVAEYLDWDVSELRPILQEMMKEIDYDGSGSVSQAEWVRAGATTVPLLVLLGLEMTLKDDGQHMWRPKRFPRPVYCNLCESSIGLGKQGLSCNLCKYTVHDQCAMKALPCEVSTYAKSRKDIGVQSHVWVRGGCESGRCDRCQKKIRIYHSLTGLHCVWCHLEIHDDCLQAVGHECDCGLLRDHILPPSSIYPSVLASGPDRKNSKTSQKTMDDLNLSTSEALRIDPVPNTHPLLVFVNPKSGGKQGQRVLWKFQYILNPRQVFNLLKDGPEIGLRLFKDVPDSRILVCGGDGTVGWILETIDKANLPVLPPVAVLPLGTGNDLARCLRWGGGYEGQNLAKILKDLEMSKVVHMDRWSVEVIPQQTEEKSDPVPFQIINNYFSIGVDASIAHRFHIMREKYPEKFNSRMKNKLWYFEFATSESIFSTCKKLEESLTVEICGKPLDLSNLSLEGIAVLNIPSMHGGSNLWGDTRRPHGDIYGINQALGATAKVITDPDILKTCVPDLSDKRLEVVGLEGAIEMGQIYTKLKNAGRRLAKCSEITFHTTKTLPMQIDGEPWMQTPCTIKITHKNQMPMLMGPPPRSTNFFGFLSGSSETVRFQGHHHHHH
DGKzeta, sequence (Q13574 whole entry): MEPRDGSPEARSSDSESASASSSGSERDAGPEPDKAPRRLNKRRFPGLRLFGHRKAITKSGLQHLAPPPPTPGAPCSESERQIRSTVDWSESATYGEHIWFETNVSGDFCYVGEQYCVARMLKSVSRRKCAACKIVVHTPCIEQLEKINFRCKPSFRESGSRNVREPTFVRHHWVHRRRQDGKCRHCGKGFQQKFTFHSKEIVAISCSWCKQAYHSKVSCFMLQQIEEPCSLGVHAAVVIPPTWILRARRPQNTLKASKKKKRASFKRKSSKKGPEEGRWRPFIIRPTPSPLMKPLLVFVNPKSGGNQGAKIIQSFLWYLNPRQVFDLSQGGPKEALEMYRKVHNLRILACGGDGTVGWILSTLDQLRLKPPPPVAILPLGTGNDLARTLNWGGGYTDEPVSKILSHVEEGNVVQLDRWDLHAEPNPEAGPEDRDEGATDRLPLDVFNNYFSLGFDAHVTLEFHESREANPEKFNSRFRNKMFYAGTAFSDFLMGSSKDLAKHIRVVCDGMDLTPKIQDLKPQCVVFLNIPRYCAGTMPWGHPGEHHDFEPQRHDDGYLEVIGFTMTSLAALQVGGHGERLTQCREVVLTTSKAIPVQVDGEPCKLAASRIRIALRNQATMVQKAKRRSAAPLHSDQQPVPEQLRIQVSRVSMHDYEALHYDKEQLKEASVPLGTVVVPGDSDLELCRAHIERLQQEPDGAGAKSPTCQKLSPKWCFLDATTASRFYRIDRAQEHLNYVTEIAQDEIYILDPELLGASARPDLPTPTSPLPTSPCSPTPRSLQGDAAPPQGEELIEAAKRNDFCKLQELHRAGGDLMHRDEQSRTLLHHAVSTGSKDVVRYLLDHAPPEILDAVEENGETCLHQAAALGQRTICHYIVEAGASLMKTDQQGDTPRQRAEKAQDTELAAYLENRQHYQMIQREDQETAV
T2 sequence (Q13574 with tags, fused parts or gaps isoform Q13574-4): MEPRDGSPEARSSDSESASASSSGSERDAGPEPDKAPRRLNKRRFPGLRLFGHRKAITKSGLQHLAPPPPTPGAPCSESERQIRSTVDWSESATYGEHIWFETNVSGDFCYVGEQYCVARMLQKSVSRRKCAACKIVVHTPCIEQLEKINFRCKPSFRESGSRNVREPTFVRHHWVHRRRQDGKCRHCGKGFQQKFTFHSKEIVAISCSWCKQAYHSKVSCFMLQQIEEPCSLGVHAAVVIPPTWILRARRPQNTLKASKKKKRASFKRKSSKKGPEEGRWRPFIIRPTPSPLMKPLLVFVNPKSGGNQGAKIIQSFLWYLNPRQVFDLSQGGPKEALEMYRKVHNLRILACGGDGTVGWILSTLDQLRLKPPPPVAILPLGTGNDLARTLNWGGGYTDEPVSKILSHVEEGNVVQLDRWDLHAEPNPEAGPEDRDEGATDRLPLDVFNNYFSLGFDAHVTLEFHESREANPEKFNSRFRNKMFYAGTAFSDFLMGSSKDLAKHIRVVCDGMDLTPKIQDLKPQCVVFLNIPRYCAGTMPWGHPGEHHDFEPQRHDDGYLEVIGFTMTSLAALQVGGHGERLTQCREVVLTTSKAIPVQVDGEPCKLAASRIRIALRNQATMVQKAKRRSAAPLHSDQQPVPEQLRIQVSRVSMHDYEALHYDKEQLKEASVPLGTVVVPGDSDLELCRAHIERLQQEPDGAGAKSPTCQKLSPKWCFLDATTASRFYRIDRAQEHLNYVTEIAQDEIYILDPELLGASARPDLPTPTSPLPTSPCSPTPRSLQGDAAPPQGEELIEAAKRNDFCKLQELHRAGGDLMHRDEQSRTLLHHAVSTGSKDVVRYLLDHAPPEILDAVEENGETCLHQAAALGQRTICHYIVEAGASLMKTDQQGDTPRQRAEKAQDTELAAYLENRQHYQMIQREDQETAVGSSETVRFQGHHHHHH

| IC50 (human DGKα) [µM] | IC50 (human DGKζ) [µM] | EC50 (DGKzeta) [µM] | EC50 (DGKalpha) [µM] | SMILES |
| --- | --- | --- | --- | --- |
| 13 | 12 | 0.041 |  | Cn1c(=O)cc(N(CC2CC2)c2ccc(C3CCCCC3)cc2)c2nc(C#N)ccc21 [Example 119, 8-((4-cyclohexylphenyl)(cyclopropylmethyl)amino)-5-methyl-6-oxo-5,6-dihydro-1,5-naphthyridine-2-carbonitrile] |
| 4.8 | 29 | 0.25 | > 3 | Cc1cc(C2CC2)ccc1N(CC1CC1)c1cc(=O)n(C)c2ccc(C#N)nc12 [Example 113, 8-((4-cyclopropyl-2-methylphenyl) (cyclopropylmethyl)amino)-5-methyl-6-oxo-5,6-dihydro-1,5-naphthyridine-2-carbonitrile] |
| > 38 | 4.4 | 0.58 | > 3 | CC(=O)N(C)c1ccc(N(CC2CC2)c2cc(=O)n(C)c3ccc(C#N)nc23)cc1 [Example 133] |
| 36 | 32 | 0.091 | > 3 | Cn1c(=O)cc(N(CC2CC2)c2ccc(C3CC3)c(-c3ccc(C4CC4)cc3)c2)c2nc(C#N)ccc21 [Example 125, 8-((cyclopropylmethyl)(4′,6-dicyclopropyl-[1,1′-biphenyl]-3-yl)amino)-5-methyl-6-oxo-5,6-dihydro-1,5-naphthyridine-2-carbonitrile] |
| 34 | > 38 | 0.18 | 2.5 | Cn1c(=O)cc(N(CC2CC2)c2ccc(C3CC3)c(-c3ccc(N4CCOCC4)cc3)c2)c2nc(C#N)ccc21 [Example 124, 8-((6-cyclopropyl-4′-morpholino-[1,1′-biphenyl]-3-yl)(cyclopropylmethyl)amino)-5-methyl-6-oxo-5,6-dihydro-1,5-naphthyridine-2-carbonitrile] |
| 24 | 1.2 | 0.64 | > 3 | Cn1c(=O)cc(N(CC2CC2)c2ccc(OC(F)F)cn2)c2nc(C#N)ccc21 [Example 123] |
| 9.3 | 1.3 | 0.013 |  | Cn1c(=O)cc(N(CC2CC2)c2ccc(C3CCC3)cc2)c2nc(C#N)ccc21 [Example 118, 8-((4-cyclobutylphenyl) (cyclopropylmethyl)amino)-5-methyl-6-oxo-5,6-dihydro-1,5-naphthyridine-2-carbonitrile] |
| 13 | 6.9 | 0.33 | 0.92 | Cn1c(=O)cc(N(CC2CC2)c2ccc3c(c2)OCCO3)c2nc(C#N)ccc21 [Example 120, 8-((cyclopropylmethyl)(2,3-dihydrobenzo[b][1,4]dioxin-6-yl)amino)-5-methyl-6-oxo-5,6-dihydro-1,5-naphthyridine-2-carbonitrile] |
| > 38 | 17 | 0.085 | > 3 | Cn1c(=O)cc(N(CC2CC2)c2ccc(C3CC3)c(-c3cccc(F)c3)c2)c2nc(C#N)ccc21 [Example 126, 8-((6-cyclopropyl-3′-fluoro-[, 1′-biphenyl]-3-yl) (cyclopropylmethyl)amino)-5-methyl-6-oxo-5,6-dihydro-1,5-naphthyridine-2-carbonitrile] |
| 16 | 18 | 0.29 |  | Cn1c(=O)cc(N(CC2CC2)[C@H]2CC[C@H](c3ccccc3)CC2)c2nc(C#N)ccc21 [Example 121, 8-((cyclopropylmethyl)((1r,4r)-4-phenylcyclohexyl)amino)-5-methyl-6-oxo-5,6-dihydro-1,5-naphthyridine-2-carbonitrile] |

Second part, the compound before the results:

| SMILES | IC50 (human DGKα) [µM] | IC50 (human DGKζ) [µM] | EC50 (DGKzeta) [µM] | EC50 (DGKalpha) [µM] |
| --- | --- | --- | --- | --- |
| Cn1c(=O)cc(N(CC2CC2)c2ccc(Br)cc2)c2nc(C#N)ccc21 [Example 18, 8-[(4-bromophenyl)(cyclopropylmethyl)amino]-5-methyl-6-oxo-5,6-dihydro-1,5-naphthyridine-2-carbonitrile] | 0.26 | 0.23 | 5 | 2.7 |
| Cn1c(=O)cc(N(CC2CC2)c2ccc(OCC(F)(F)F)cc2)c2nc(C#N)ccc21 [Example 37, 8-((cyclopropylmethyl)(4-(2,2,2-trifluoroethoxy)phenyl)amino)-5-methyl-6-oxo-5,6-dihydro-1,5-naphthyridine-2-carbonitrile] | 1.1 | 0.35 | 5 | 10 |
| Cn1c(=O)cc(N(CC2CC2)c2ccc(C#N)nc2)c2nc(C#N)ccc21 [Example 66, 8-((6-cyanopyridin-3-yl)(cyclopropylmethyl)amino)-5-methyl-6-oxo-5,6-dihydro-1,5-naphthyridine-2-carbonitrile] | 17 | 8.4 | 3 |  |
| Cn1c(=O)cc(N(CC2CC2)c2cccc(-c3ccc(C(N)=O)cc3)c2)c2nc(C#N)ccc21 [Example 103, 3′-((6-cyano-1-methyl-2-oxo-1,2-dihydro-1,5-naphthyridin-4-yl)(cyclopropylmethyl)amino)-[1,1′-biphenyl]-4-carboxamide] | 0.12 | 2 |  |  |
| Cc1ccc(N(C)c2cc(=O)n(C)c3ccc(C#N)nc23)cc1 [Example 20, 5-methyl-8-(methyl(p-tolyl)amino)-6-oxo-5,6-dihydro-1,5-naphthyridine-2-carbonitrile] | 0.73 | 36 |  |  |
| Cn1c(=O)cc(N(CC2CC2)c2cccc(-c3cccnc3)c2)c2nc(C#N)ccc21 [Example 106, 8-((cyclopropylmethyl)(3-(pyridin-3-yl)phenyl)amino)-5-methyl-6-oxo-5,6-dihydro-1,5-naphthyridine-2-carbonitrile] | 0.66 | 2.2 |  |  |
| Cn1c(=O)cc(N(CC2CC2)c2ccc(C3CC3)cc2)c2nc(C#N)ccc21 [Example 40, 8-((cyclopropylmethyl)(4-cyclopropylphenyl)amino)-5-methyl-6-oxo-5,6-dihydro-1,5-naphthyridine-2-carbonitrile] | 2.7 | 0.19 |  |  |
| CCN(c1ccc(OC)cc1)c1cc(=O)n(C)c2ccc(C#N)nc12 [Example 34, 8-(ethyl(4-methoxyphenyl)amino)-5-methyl-6-oxo-5,6-dihydro-1,5-naphthyridine-2-carbonitrile] | 6.5 | 2.5 |  |  |
| Cn1c(=O)cc(N(CC2CC2)c2ccc(F)nc2)c2nc(C#N)ccc21 [Example 64, 8-((cyclopropylmethyl)(6-fluoropyridin-3-yl)amino)-5-methyl-6-oxo-5,6-dihydro-1,5-naphthyridine-2-carbonitrile] | 0.15 | 3 | 1.6 |  |
| COc1ccccc1-c1cccc(N(CC2CC2)c2cc(=O)n(C)c3ccc(C#N)nc23)c1 [Example 96, 8-((cyclopropylmethyl)(2′-methoxy-[1,1′-biphenyl]-3-yl)amino)-5-methy-6-oxo-5,6-dihydro-1,5-naphthyridine-2-carbonitrile] | 2.9 | 5.4 |  |  |
| Cc1ccccc1-c1cccc(N(CC2CC2)c2cc(=O)n(C)c3ccc(C#N)nc23)c1 [Example 93, 8-((cyclopropylmethyl)(2′-methyl-[1,1′-biphenyl]-3-yl)amino)-5-methyl-6-oxo-5,6-dihydro-1,5-naphthyridine-2-carbonitrile] | 4.2 | 9.2 |  |  |
| COc1ccc(N(CC2CC2)c2cc(=O)n(C)c3ccc(C#N)nc23)cc1 [Example 36, 8-((cyclopropylmethyl)(4-methoxyphenyl)amino)-5-methyl-6-oxo-5,6-dihydro-1,5-naphthyridine-2-carbonitrile] | 0.89 | 0.8 |  |  |
| COCc1ccccc1N(CC1CC1)c1cc(=O)n(C)c2ccc(C#N)nc12 [Example 67, 8-((cyclopropylmethyl)(2-(methoxymethyl)phenyl)amino)-5-methyl-6-oxo-5,6-dihydro-1,5-naphthyridine-2-carbonitrile] | 4.5 | 21 |  |  |
| Cn1c(=O)cc(N(CC2CC2)c2cccc(-c3ccc(Cl)cc3)c2)c2nc(C#N)ccc21 [Example 71, 8-((4′-chloro-[1,1′-biphenyl]-3-yl)(cyclopropylmethyl)amino)-5-methyl-6-oxo-5,6-dihydro-1,5-naphthyridine-2-carbonitrile] | 0.14 | 15 |  |  |
| COc1ccc(-c2cccc(N(C)c3cc(=O)n(C)c4ccc(C#N)nc34)c2)cc1 [Example 5, 8-((4′-methoxy-[1,1′-biphenyl]-3-yl)(methyl)amino)-5-methyl-6-oxo-5,6-dihydro-1,5-naphthyridine-2-carbonitrile] | 0.18 | 32 |  |  |
| CCCN(CC1CC1)c1nc(=O)n(C)c2ccc(Cl)nc12 [Example 31, 6-chloro-4-((cyclopropylmethyl)(propyl)amino)-1-methylpyrido[3,2-d]pyrimidin-2(1H)-one] | 1 | 32 |  |  |
| Cn1c(=O)cc(N(CC2CC2)c2ccc(OC(F)F)c(C#N)c2)c2nc(C#N)ccc21 [Example 63, 8-((3-cyano-4-(difluoromethoxy)phenyl)(cyclopropylmethyl)amino)-5-methyl-6-oxo-5,6-dihydro-1,5-naphthyridine-2-carbonitrile] | 6.3 | 12 | 1.3 |  |
| Cn1c(=O)cc(N(CC2CC2)c2cccc(OC(F)(F)F)c2)c2nc(C#N)ccc21 [Example 43, 8-((cyclopropylmethyl)(3-(trifluoromethoxy)phenyl)amino)-5-methyl-6-oxo-5,6-dihydro-1,5-naphthyridine-2-carbonitrile] | 1.1 | 26 |  |  |
| Cn1c(=O)cc(N(CC2CC2)c2ccc(OC(F)(F)F)cc2Cl)c2nc(C#N)ccc21 [Example 50, 8-((2-chloro-4-(trifluoromethoxy)phenyl)(cyclopropylmethyl)amino)-5-methyl-6-oxo-5,6-dihydro-1,5-naphthyridine-2-carbonitrile] | 4.8 | 2.5 |  |  |
